From paper doi:10.1101/2025.02.15.638425v1, “Synthesis and Biological Evaluation of Nipecotic Acid Derivatives with Terminally Double-Substituted Allenic Spacers as mGAT4 Inhibitors” (biorxiv, 2025)

Assays:
mGAT2 = biological target: T1, mGAT2 (Mus musculus, UniProt P31651); test: [3H]GABA uptake, intact HEK293 cells; type: cell-based
T1 construct: gene Slc6a12; full-length transporter stably expressed in HEK293 cells; mouse nomenclature, equivalent of hBGT-1
T1 sequence (P31651 1-614): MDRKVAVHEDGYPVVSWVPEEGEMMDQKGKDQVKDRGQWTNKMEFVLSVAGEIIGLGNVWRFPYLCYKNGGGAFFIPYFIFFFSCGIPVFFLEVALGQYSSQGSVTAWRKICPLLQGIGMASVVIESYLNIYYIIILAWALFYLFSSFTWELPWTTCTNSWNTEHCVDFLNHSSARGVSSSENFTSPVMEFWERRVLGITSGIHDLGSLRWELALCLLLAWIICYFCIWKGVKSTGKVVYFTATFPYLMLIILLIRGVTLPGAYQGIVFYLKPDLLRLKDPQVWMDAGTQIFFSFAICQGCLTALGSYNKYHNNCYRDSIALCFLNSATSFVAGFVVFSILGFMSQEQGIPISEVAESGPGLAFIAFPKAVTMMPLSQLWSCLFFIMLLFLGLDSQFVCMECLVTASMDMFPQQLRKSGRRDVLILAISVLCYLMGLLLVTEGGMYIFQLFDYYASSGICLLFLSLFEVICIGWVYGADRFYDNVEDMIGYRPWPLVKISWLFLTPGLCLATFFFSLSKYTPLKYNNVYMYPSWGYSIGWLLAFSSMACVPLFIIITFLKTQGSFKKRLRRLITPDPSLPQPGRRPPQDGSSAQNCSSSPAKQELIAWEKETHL
From the text: [3H]GABA uptake, intact HEK293 cells on mGAT2

hGAT-3 = biological target: T2, hGAT-3 (Homo sapiens, UniProt P48066); test: MS Transport Assay (GABA transport), COS-7 cells; type: cell-based
T2 construct: gene SLC6A11; full-length transporter stably expressed in COS-7 cells
T2 sequence (P48066 1-632): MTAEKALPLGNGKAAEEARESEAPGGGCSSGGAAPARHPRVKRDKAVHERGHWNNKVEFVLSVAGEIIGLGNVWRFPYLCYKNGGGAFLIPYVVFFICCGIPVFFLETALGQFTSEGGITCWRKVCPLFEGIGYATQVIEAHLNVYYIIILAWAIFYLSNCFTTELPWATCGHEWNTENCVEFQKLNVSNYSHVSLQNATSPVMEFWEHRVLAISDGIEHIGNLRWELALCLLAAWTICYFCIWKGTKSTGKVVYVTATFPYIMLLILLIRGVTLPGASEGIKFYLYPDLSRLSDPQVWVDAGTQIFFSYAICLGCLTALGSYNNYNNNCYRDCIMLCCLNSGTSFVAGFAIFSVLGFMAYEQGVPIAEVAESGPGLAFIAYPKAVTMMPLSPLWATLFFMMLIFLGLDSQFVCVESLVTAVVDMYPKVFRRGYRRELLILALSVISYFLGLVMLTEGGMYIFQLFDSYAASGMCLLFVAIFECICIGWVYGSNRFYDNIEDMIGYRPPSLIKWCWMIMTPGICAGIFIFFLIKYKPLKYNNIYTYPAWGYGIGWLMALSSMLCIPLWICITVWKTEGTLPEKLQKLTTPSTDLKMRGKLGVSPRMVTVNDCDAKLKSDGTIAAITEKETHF
From the text: MS Transport Assay (GABA transport), COS-7 cells on hGAT-3

mGAT3 = biological target: T3, mGAT3 (Mus musculus, UniProt P31649); test: [3H]GABA uptake, intact HEK293 cells; type: cell-based
T3 construct: gene Slc6a13; full-length transporter stably expressed in HEK293 cells; mouse nomenclature, equivalent of hGAT-2
T3 sequence (P31649 1-602): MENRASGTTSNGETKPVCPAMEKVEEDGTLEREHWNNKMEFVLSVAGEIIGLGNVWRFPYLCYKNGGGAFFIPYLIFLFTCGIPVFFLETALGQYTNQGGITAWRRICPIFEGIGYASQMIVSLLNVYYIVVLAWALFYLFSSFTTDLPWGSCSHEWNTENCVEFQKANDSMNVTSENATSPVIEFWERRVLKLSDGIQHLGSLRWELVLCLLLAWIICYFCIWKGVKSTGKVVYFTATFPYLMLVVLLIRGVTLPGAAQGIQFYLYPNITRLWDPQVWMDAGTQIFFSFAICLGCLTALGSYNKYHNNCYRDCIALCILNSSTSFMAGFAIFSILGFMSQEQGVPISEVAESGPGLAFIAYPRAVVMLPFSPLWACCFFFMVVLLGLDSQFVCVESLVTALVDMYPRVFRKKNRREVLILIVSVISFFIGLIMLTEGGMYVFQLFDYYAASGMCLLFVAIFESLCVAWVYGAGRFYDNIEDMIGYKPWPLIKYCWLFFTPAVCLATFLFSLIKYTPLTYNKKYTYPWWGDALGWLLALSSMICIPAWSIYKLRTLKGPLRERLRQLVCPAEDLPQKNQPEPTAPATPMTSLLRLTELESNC
From the text: [3H]GABA uptake, intact HEK293 cells on mGAT3

mGAT1 [1] = biological target: T4, mGAT1 (Mus musculus, UniProt P31648); test: [3H]GABA uptake, intact HEK293 cells; type: cell-based
T4 construct: gene Slc6a1; full-length transporter stably expressed in HEK293 cells
From the text: [3H]GABA uptake, intact HEK293 cells on mGAT1

mGAT1 [2] = biological target: T4, mGAT1; test: competitive MS Binding Assay, NO711 marker, HEK293 membranes
From the text: competitive MS Binding Assay, NO711 marker, HEK293 membranes on mGAT1

mGAT4 [3] = biological target: T5, mGAT4 (Mus musculus, UniProt P31650); test: [3H]GABA uptake, intact HEK293 cells; type: cell-based
T5 construct: gene Slc6a11; full-length transporter stably expressed in HEK293 cells
T5 sequence (P31650 1-627): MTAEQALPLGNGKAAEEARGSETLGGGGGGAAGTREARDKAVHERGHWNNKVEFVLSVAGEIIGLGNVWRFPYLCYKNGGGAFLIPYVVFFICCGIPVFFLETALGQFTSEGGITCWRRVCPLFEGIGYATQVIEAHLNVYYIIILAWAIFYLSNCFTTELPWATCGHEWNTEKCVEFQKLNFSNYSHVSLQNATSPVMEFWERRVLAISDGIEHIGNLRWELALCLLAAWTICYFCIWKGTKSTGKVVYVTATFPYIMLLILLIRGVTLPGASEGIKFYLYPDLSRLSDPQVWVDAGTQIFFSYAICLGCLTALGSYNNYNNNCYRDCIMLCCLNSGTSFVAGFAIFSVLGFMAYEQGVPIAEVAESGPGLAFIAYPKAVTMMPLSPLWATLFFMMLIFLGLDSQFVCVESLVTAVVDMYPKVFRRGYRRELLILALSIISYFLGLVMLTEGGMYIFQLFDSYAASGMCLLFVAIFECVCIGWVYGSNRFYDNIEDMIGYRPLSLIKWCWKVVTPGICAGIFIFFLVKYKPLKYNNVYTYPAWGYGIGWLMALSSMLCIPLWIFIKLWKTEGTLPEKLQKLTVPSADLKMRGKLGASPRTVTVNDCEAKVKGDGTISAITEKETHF

mGAT4 [4] = biological target: T5, mGAT4; test: [3H]GABA uptake, intact HEK293 cells; type: cell-based; remark: listed apart in the source
From the text: [3H]GABA uptake, intact HEK293 cells on mGAT4

| IC50 (mGAT2) [µM] | IC50 (hGAT-3) [µM] | IC50 (mGAT3) [µM] | IC50 (mGAT1 [1]) [µM] | Ki (mGAT1 [2]) [µM] | IC50 (mGAT4 [3]) [µM] | remaining activity at 100 µM (mGAT4 [4]) [%] | remaining activity at 100 µM (mGAT3) [%] | SMILES |
| --- | --- | --- | --- | --- | --- | --- | --- | --- |
| 6.46 | 1.66 | 8.32 | 5.01 | 1.23 | 4.47 |  |  | O=C(O)C1CCCN(CC=C=C(c2ccccc2)c2ccc(-c3ccccc3)cc2)C1 (racemic) [8f, rac-{(Ra)-1-[4-(1,1’-biphenyl-4-yl)-4-phenylbuta-2,3-dien-1-yl]-(3R)-piperidine-3-carboxylic acid} [rac-(3R,Ra)-8f] and rac-{(Sa)-1-[4-(1,1’-biphenyl-4-yl)-4-phenylbuta-2,3-dien-1-yl]-(3R)-piperidine-3-carboxylic acid}] |
|  |  |  | 13.5 | 58.9 |  | 70 |  | COc1ccc2c(c1)CCCC2=C=CCN1CCCC(C(=O)O)C1 (racemic) [8g, rac-[(Ra)-1-{3-[6-methoxy-3,4-dihydronaphthalen-1(2H)-ylidene]allyl}-(3R)-piperidine-3-carboxylic acid] [rac-(3R,Ra)-8g] and rac-[(Sa)-1-{3-[6-methoxy-3,4-dihydronaphthalen-1(2H)-ylidene]allyl}-(3R)-piperidine-3-carboxylic acid]] |
| 12.3 | 6.17 | 10.2 | 4.68 | 0.891 | 12.6 |  |  | O=C(O)C1CCCN(CCC=C=C(c2ccccc2)c2ccc(-c3ccccc3)cc2)C1 (racemic) [11f, rac-{(Ra)-1-[5-(1,1’-biphenyl-4-yl)-5-phenylpenta-3,4-dien-1-yl]-(3R)-piperidine-3-carboxylic acid} [rac-(3R,Ra)-11f] and rac-{(Sa)-1-[5-(1,1’-biphenyl-4-yl)-5-phenylpenta-3,4-dien-1-yl]-(3R)-piperidine-3-carboxylic acid}] |
|  |  |  | 7.41 | 1.17 |  | 82 |  | O=C(O)C1CCCN(CC=C=C(c2ccccc2)c2ccccc2)C1 (racemic) [rac-8a, rac-[1-(4,4-Diphenylbuta-2,3-dien-1-yl)piperidine-3-carboxylic acid]] |
| 27.5 |  | 10.5 | 6.46 | 1.38 | 11.5 |  |  | Cc1ccc(C(=C=CCN2CCCC(C(=O)O)C2)c2ccc(C)cc2)cc1 (racemic) [rac-8b, rac-[1-(4,4-Di-p-tolylbuta-2,3-dien-1-yl)piperidine-3-carboxylic acid]] |
| 79.4 |  | 69.2 | 1.07 | 0.562 | 30.2 |  |  | O=C(O)C1CCCN(CC=C=C(c2ccc(F)cc2)c2ccc(F)cc2)C1 (racemic) [rac-8c, rac-{1-[4,4-Bis(4-fluorophenyl)buta-2,3-dien-1-yl]piperidine-3-carboxylic acid}] |
| 7.59 | 0.447 | 2.95 | 0.372 | 0.155 | 0.832 |  |  | O=C(O)C1CCCN(CC=C=C(c2ccc(Cl)cc2)c2ccc(Cl)cc2)C1 (racemic) [rac-8d] |
| 178 |  | 129 | 24.5 | 5.5 |  | 64 |  | O=C(O)C1CCCN(CCC=C=C(c2ccccc2)c2ccccc2)C1 (racemic) [rac-11a, rac-[1-(5,5-Diphenylpenta-3,4-dien-1-yl)piperidine-3-carboxylic acid]] |
| 81.3 |  | 58.9 | 14.1 | 1.58 | 83.2 |  |  | Cc1ccc(C(=C=CCCN2CCCC(C(=O)O)C2)c2ccc(C)cc2)cc1 (racemic) [rac-11b, rac-[1-(5,5-Di-p-tolylpenta-3,4-dien-1-yl)piperidine-3-carboxylic acid]] |
|  |  |  | 12.9 | 3.24 |  | 63 | 50 | O=C(O)C1CCCN(CCC=C=C(c2ccc(F)cc2)c2ccc(F)cc2)C1 (racemic) [rac-11c, rac-{1-[5,5-Bis(4-fluorophenyl)penta-3,4-dien-1-yl]piperidine-3-carboxylic acid}] |
| 12 |  | 28.2 | 1.91 | 0.631 | 17 |  |  | O=C(O)C1CCCN(CCC=C=C(c2ccc(Cl)cc2)c2ccc(Cl)cc2)C1 (racemic) [rac-11d, rac-{1-[5,5-Bis(4-chlorophenyl)penta-3,4-dien-1-yl]piperidine-3-carboxylic acid}] |
| 15.8 | 2.4 | 4.17 | 0.155 | 0.102 | 2 |  |  | O=C(O)[C@@H]1CCCN(CC=C=C(c2ccc(Cl)cc2)c2ccc(Cl)cc2)C1 [(R)-8d] |
| 4.07 | 0.324 | 1.1 | 1.35 | 2.51 | 0.257 |  |  | O=C(O)[C@H]1CCCN(CC=C=C(c2ccc(Cl)cc2)c2ccc(Cl)cc2)C1 [(S)-8d, (S)-1-[4,4-bis(4-chlorophenyl)buta-2,3-dien-1-yl]piperidine-3-carboxylic acid] |
